From paper PMC13091788 (NPJ Aging, 2026)

Assays:
C2C12 cells [1] = assay: Mitochondrial morphology analysis (anti-Tom20, MiNA); assay type: cell-based, mouse; details: C2C12, Q-BRB or AcA-BRB 10 μM, 48 h
Description: Cells were fixed with 4% paraformaldehyde in PBS for 15 min at 37 °C, washed three times with PBS, and permeabilized with 0.1% Triton X-100 in PBS for 10 min at room temperature (RT). After three additional washes with PBS, cells were blocked with 10% bovine serum albumin (BSA) in PBS for 10 min at RT. Cells were incubated with anti-Tom20 primary antibody (1:750 dilution, 11802-1-AP, Proteintech) in PBS containing 5% BSA for 1 h at RT, followed by three PBS washes. Hoechst 33342 (1:2000 dilution) and Alexa Fluor-conjugated secondary antibody (1:500 dilution, A11029, Invitrogen) in PBS containing 5% BSA were applied for 30 min at RT.
After three final PBS washes, cells were mounted with Fluorescent Mounting Medium (S3023, Dako), and imaged using an FV3000 confocal laser scanning microscope (Olympus). Images were acquired as Z-stacks with 0.2 μm intervals and reconstructed into maximum intensity projections using Fiji/ImageJ software.
Mitochondrial morphology was quantified using the MiNA plugin for Fiji (https://imagej.net/plugins/mina). Thirty cells per group were randomly selected for analysis. Average mitochondrial length and other morphological parameters were calculated according to the plugin’s standard analysis pipeline.

C2C12 cells [2] = assay: Mitochondrial membrane potential (JC-1); assay type: cell-based, mouse; details: C2C12, Q-BRB or AcA-BRB 5 or 10 μM, 48 h
Description: Mitochondrial membrane potential was assessed using the JC-1 dye (JC-1, T3168, Thermo Fisher Scientific). Cells cultured in 96-well plates were washed twice with PBS and incubated with 1 μM JC-1 for 30 min at 37 °C in the dark. After incubation, cells were washed with PBS, and fluorescence intensities at 590 nm (red) and 530 nm (green) were measured using a microplate reader. The 590/530 nm fluorescence ratio was calculated and used as an index of mitochondrial membrane potential.

[3] = test system: 24-month-old male C57BL/6 N mice; assay: Age-related cardiac dysfunction in aged mice; assay type: in vivo, mouse
Excerpt: All experimental procedures were approved by the Ethics Review Committee for Animal Experimentation at Kumamoto University, Kumamoto, Japan (approval No. A 2024-083). Procedures followed the guidelines and recommendations outlined by the ILAR Guide for the Care and Use of Laboratory Animals (8th Edition, 2011). Prior to tissue collection, mice were euthanized under isoflurane anesthesia, followed by cervical dislocation to ensure rapid euthanasia, a procedure also employed during sacrifice for tissue harvesting. Euthanasia was performed when animals met the established criteria for humane endpoints, specifically a body weight loss exceeding 20% over a 3-day period or 25% over a 1-week period, in accordance with the Kumamoto University Ethics Review Committee for Animal Experimentation above. All animals fed a normal diet (CE-2, CLEA) were randomly assigned to two groups: tap water only and tap water supplemented with AcA-BRB (0.5 mg/mL). Mice were housed in an animal facility with lighting cycles automatically controlled (12 h light/12 h dark), maintained at a stable temperature of 22 ± 2 °C and a relative humidity of 40–80%. C57BL/6NJcl wild-type (WT) male mice aged 2, 20, and 24 months were used in this study. Mice were preconditioned by chest hair removal with a topical depilatory (FUJIFILM VisualSonics), anesthetized with 1.5–2.5% isoflurane administered via inhalation, and maintained in a supine position on a dedicated animal handling platform with limbs immobilized for electrocardiogram gating during imaging. Body temperature was kept constant by relaying signals from a rectal probe to a heating pad, while heart and respiratory rates were continuously monitored. Transthoracic echocardiography was performed using a high-frequency ultrasound system dedicated to small-animal imaging (VisualSonics Vevo 3100, FUJIFILM VisualSonics) using a MS 400 linear array transducer (18–38 MHz). M-mode recording was performed at the midventricular level in the short-axis view. All images were analyzed using dedicated software (Vevo LAB version 5.7.1). LV wall thickness and internal cavity diameters at diastole (LVID;d) and systole (LVID;s) were measured. Percent LV fractional shortening (%FS) and Left Ventricular Ejection Fraction (LVEF) was calculated from M-mode measurements. To analyze cardiac diastolic function, trans-mitral flow velocity patterns and early diastolic mitral annular velocity (e’) were measured in the four-chamber view to calculate the ratio of early trans-mitral flow velocity (E) to e’ (E/e’). All procedures were performed under double-blind conditions with regard to genotype or treatment. Total RNA was extracted using a RNeasy Mini Kit (Qiagen). DNase-treated RNA was reverse-transcribed using a PrimeScript RT reagent Kit (Takara Bio). Heart tissue was homogenized using a multi-beads shocker (Yasui Kikai). Real-time quantitative RT-PCR was performed using TB Green Premix Ex Taq II (Takara Bio), and a Thermal Cycler Dice Real-Time System (Takara Bio). Relative transcript abundance was normalized to 18S rRNA levels. Primer sets used for RT-PCR are listed in Supplementary Table 3.

[4] = test system: high-fat diet (HFD32)-fed mice; assay: Survival analysis in high-fat diet-fed mice; assay type: in vivo, mouse; details: 0.5 mg/mL in drinking water from 60 weeks old, HFD32 from 8 weeks of age
Description: For survival analysis under metabolic stress conditions, two-month-old C57BL/6NJcl male mice fed a high-fat diet (HFD 32: water 6.2%, protein 25.5%, fat 32.0%, ash 4.0%, carbohydrate 29.4%, fiber 2.9%, providing 507.6 kcal/100 g; CLEA) were randomly assigned to two groups: tap water only and tap water supplemented with AcA-BRB (0.5 mg/mL).

[5] = design: method as in PMID 24593257; details: cited from earlier work
[6] = AcA-BRB 0.5 mg/mL in drinking water, 24-month-old mice, vs control
[7] = AcA-BRB 0.5 mg/mL in drinking water, aged mice

Compound | mitochondrial elongation (C2C12 cells [1]) | mitochondrial membrane potential (JC-1 590/530 nm) (C2C12 cells [2]) | blood pressure and heart rate vs control mice ([3]; 24-month-old mice, 3 months of treatment with AcA-BRB) | age-related progression of left ventricular dilatation, systolic dysfunction and diastolic dysfunction (echocardiography) ([3]; AcA-BRB 0.5 mg/mL in drinking water, 24-month-old mice, after 12 weeks, vs control) | cardiac hypertrophy (HW/TL ratio, histology) and pulmonary congestion (LW/TL ratio) [3, 6] | upregulation of genes associated with heart failure and cardiac fibrosis (qRT-PCR, heart) [3, 6] | LC3A/B II/I ratio in heart tissues (western blot) [3, 7] | expression of genes associated with ROS-scavenging systems (heart) [3, 7] | expression of genes associated with mitochondrial biogenesis, dynamics and mitophagy (heart) [3, 7] | p62 levels in heart tissues (western blot) [3, 7] | lifespan compared with control mice [4] | water solubility (literature) [5]
COc1ccc2cc3[n+](cc2c1O)CCc1cc2c(cc1-3)OCO2 [berberrubine] | significantly enhanced | remained unchanged | comparable | ameliorated | improved | blocked | increase | upregulated | significantly increased | decrease | significantly prolonged | –
COc1ccc2cc3n(cc-2c1=O)CCc1cc2c(cc1-3)OCO2 [Q-BRB, quinoid-type berberrubine] | – | – | – | – | – | – | – | – | – | – | – | water-insoluble
